Here are results for four compounds from paper PMC5462101 (Future medicinal chemistry, 2015).

A word on the IC50: it is the concentration needed to halve the response being measured.

Each structure is given as a SMILES string. Marks after values point to notes of the source that are not given here.

In assay [1] the target is T1, soybean lipoxygenase (Glycine max, UniProt P08170).
T1 construct: purchased Sigma
T1 sequence (P08170 1-839): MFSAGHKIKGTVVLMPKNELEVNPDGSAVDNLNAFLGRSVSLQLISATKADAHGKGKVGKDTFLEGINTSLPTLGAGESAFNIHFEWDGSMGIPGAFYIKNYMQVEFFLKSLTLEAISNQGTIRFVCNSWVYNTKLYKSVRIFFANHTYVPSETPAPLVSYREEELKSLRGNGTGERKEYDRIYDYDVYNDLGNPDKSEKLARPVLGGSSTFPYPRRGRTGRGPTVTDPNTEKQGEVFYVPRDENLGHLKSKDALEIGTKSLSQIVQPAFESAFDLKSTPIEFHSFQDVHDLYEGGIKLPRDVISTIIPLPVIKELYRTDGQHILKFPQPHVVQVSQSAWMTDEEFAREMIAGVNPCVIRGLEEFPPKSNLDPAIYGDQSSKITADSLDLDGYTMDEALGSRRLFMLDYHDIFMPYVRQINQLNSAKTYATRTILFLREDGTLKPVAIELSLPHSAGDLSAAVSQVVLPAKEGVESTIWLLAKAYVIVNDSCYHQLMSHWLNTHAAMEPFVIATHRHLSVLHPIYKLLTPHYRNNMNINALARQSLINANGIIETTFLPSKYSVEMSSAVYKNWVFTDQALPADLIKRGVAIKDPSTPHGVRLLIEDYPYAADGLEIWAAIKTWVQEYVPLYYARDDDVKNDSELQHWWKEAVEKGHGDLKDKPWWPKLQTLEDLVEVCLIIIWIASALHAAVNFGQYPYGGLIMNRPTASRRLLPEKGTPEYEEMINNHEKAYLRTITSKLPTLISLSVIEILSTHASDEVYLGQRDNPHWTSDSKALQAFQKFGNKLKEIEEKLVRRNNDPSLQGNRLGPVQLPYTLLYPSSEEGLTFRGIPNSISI
The experiment in a line: Inhibition of soybean lipoxygenase. Format: biochemical. The conditions noted are these: for inhibition at 100 µM: compound at 100 µM, read-out: Lipoxygenase inhibitory activity (% at 100 µM). The method, then: The substituted pteridines prepared were assayed for inhibition of soybean lipoxygenase (Table 1) (Supplementary Information). Many studies have used readily obtainable soybean lipoxygenase, which is a homologue of mammalian lipoxygenase and well examined. The availability of soybean LOX and its well-characterized crystal structure led to its use in this study.
Determination of soybean lipoxygenase inhibition
A solution in DMSO of each compound to be tested was incubated at room temperature with sodium linoleate (0.1 mM) and a solution of soybean lipoxygenase (EC 1.13.11.12) (1:9 x 10^4 w/v in saline, 0.2 mL, Sigma). The conversion of sodium linoleate to 13-hydroperoxylinoleic acid was monitored by observation at 234 nm and compared with the value of appropriate standard inhibitor (Table 1).
(§1) IC50 determinations. OriginPro 8 was used to determine IC50 values from the sigmoidal line fitted to a graph of log[concentration] against the average percentage inhibition from two independent experiments, with at least 6 different concentrations. The SEM is the calculated standard error in the IC50 value of the fitted line.

Assay [2] is described as follows: Competition with DMSO for hydroxyl radicals. To be noted: compound at 100 µM, Fe3+/ascorbic acid, DMSO 33 mM. The protocol:
Competition of the novel pteridine derivatives with dimethyl sulfoxide for hydroxyl radicals was measured. […] The majority of the derivatives were excellent scavengers of hydroxyl radicals with activity higher than the reference compound 6-hydroxy-2,5,7,8-tetramethylchroman-2-carboxylic acid (Trolox).
Competition of pteridine derivatives with DMSO for hydroxyl radicals
Hydroxyl radicals generated by the Fe^3+/ascorbic acid system were detected by determination of formaldehyde produced from the oxidation of DMSO, according to the procedure of Nash. The reaction mixture comprised ethylenediaminetetracetic acid (EDTA) (0.1 mM), Fe^3+ (167 μM), DMSO (33 mM) in phosphate buffer (50 mM, pH 7.4), ascorbic acid (10 mM) and the compound to be tested at 100 µM. After incubation at 37 °C for 30 min the mixture was quenched with aqueous trichloroacetic acid (17% w/v) (Table 2) and the percentage competition of the tested compounds with DMSO for hydroxyl radicals was determined (Table 2).

Assay [3] has as its system rat model of colitis. The experiment in a line: Acetic acid-induced colitis in the rat. The class given is in vivo, Fisher 344 rats. The conditions noted are these: 0.01 mmol/kg intrarectally, 4% acetic acid; for Change in body weight (%): assessed after 48 h; for Score (levels 0–5): colonic damage score, 48 h. The method, then:
LOX has also been associated with inflammation and ulcerative colitis. In the present study, a model for colitis involving intracolonic administration of aqueous 4% acetic acid in the rat was used, leading to acute inflammatory reaction. Treated rats presented partial to diffuse petechial bleeding, single erosion and limited ulceration indicating an overall healing effect of the compounds. Substituted pteridines presenting a satisfactory combination of activities 5a, 18a, 18d and 18f were tested using this in vivo model characterized by diffuse exfoliated mucosa as well as multiple and extended erosion and ulcers of the colon (Table 3). No mortality was encountered.
(§2) Fisher 344 rats (150-200 g) were housed in wire-mesh cages, given standard laboratory chow and tap water ad libitum and acclimatized for one week before experiments. Rats were randomly assigned to experimental groups. All in vivo experiments conform to the law for the protection of experimental animals (Republic of Greece) and are registered at the Veterinary Administration of the Republic of Greece in accordance with recognized guidelines on animal experimentation including Directive 2010/63/EU.
Induction of colitis
Rats were anesthetized using pentobarbital (50 mg/kg ip) prior to administration with 1 mL of either vehicle (0.9% w/v saline) or the compound under study at doses 0.01mmol/kg intrarectally via a polyethylene cannula (fitted to a 1 mL syringe) with the tip inserted approximately 8 cm into the anus. Following 30 min pretreatment, 1 ml of 4% acetic acid was introduced into the colon intrarectally and, after exposure for 60 s, the excess fluid was withdrawn. The luminal content was then expelled by instillation of air (10 mL), the ligature was removed and the abdomen was sutured. Both groups of rats were allowed to recover with food and water and the resulting injury was assessed after 48 h. The experiment was conducted using two groups, each containing 3 animals.
Assessment of colonic damage. Rats were weighed, inspected for the presence of diarrhea and sacrificed using diethyl ether. The colons were excised and opened longitudinally, rinsed with cold saline, pinned out and observed under a dissecting microscope. Colonic damage was scored using the system of MacPherson and Pfeiffer: 0 – normal appearance, 1- hyperaemia, 2 – patchy petechial bleeding, 3 – diffuse petechial bleeding, 4 – partial exfoliated mucosa or single erosion or ulceration, 5 – diffuse exfoliated mucosa or multiple erosions or ulceration. The presence or absence of adhesions between the colon and the surrounding tissues was recorded. Scoring of the colonic damage (Table 4) was carried out by an observer unaware of the treatment.

Assay [4] can be described thus: Inhibition of linoleic acid peroxidation (AAPH). To be noted: linoleic acid peroxidation initiated by AAPH, 37 °C, pH 7.4.
From the text: Azo compounds that generate free radicals through spontaneous thermal decomposition are useful for in vitro studies of free radical production. The water-soluble AAPH has been extensively used as a clean and controllable source of thermally produced alkylperoxyl free radicals. […] Evidently, the presence of 6,7-dimethyl groups on the pteridine ring greatly enhances protection against lipid peroxidation; the nature of the alkyl group and ring size on the 2-substituent has some, but much less, effect. […] The role of lipophilicity (as assessed from calculated clogP values; Table 1) is not clear, but substituent bulk plays a significant role.
Inhibition of linoleic acid peroxidation
Production of conjugated diene hydroperoxide by oxidation of linoleic acid in an aqueous dispersion was monitored at 234 nm. 2,2’-Azobis(2-amidinopropane) dihydrochloride (AAPH) was used as a free radical initiator. This assay was used to follow oxidative changes and to determine the inhibition of the peroxidation of sodium linoleate by each tested compound. A dispersion of sodium linoleate (16 mM, 10 μL) was added to the UV cuvette containing phosphate buffer (0.05 M, 0.93 mL) at pH 7.4 and kept in a thermostat at 37 °C. The oxidation reaction was initiated at 37 °C under air by the addition of AAPH solution (40 mM, 50 μL). Oxidation was carried out in the presence of aliquots (10 μL) of the tested compound. In the assay without antioxidant, lipid oxidation was measured in the presence of DMSO (10 μL). The rate of oxidation at 37 °C was monitored by recording the increase in absorption at 234 nm caused by conjugated diene hydroperoxide formation (Table 2).
as §1

Assay [5] can be described thus: Reducing ability in DPPH assay. To be noted: compound 100 μM. The protocol:
Previous work has shown that pterins, their dihydro- and their tetrahydro-derivatives can each be antioxidants or pro-oxidants, depending on the particular conditions. In the present study, several assays were used to assess in vitro antioxidant activity in order to obtain representative information; each method involves the generation of a different radical.
Determination of reducing activity using 1,1-diphenyl-2-picrylhydrazyl radical (DPPH)
To a solution of DPPH in absolute ethanol was added an equal volume of the compound to be tested dissolved in DMSO (20 µL). From a stock solution (10 mM) was prepared a final solution of 100 µM for evaluation of the compounds. The absorbance at 517 nm was recorded after 20 and 60 min at room temperature (Table 2).

For assay [6], the system named is carrageenin-induced rat paw edema. Briefly: Inhibition of carrageenin-induced rat paw edema. The conditions noted are these: rat, 0.01 mmol/kg intraperitoneally, 1 h, mean of two experiments. The class given is in vivo, Fisher 344 rats. The method, then: The incipient pattern of this edema is characterized by the effects of histamine and 5-hydroxytryptamine. After 1 h, reduction of edema in the rat paw achieved by the pteridine 18f was appreciably greater than the reduction induced by the reference compound indomethacin, a nonselective COX-inhibitor and commonly used nonsteroidal anti-inflammatory drug. Thus, 18f and some related pteridines offer significant protection against reactive oxygen species produced in a model of colitis, probably on account of their properties as antioxidants and radical scavengers.
as §2
Inhibition of carrageenin-induced edema
Edema was induced in the right hind paw of Fisher 344 rats (150-200 g) by intradermal injection of aqueous carrageenin (0.1 mL, 2%). Pregnant females were excluded from the study, but both sexes were used. Each group comprised 6-15 rats which were bred and housed under standard conditions and received a diet of commercial food pellets and water ad libitum during maintenance but were entirely fasted during the experiment period. Each compound (0.01 mmol/kg body weight) was suspended in water to which had been added a few drops of Tween 80 and then the mixture was ground in a mortar prior to being administered intraperitoneally and simultaneously with the carrageenin injection. Rats were euthanized 1 h after injection, and the difference between the weight of the injected and non-injected paws was calculated for each animal. The change in paw weight was compared with that in control animals (treated with water) and the inhibition of the edema was expressed as a percentage (Table 4). […]
On the technique in general: In the carrageenan paw model, swelling and tenderness develop within hours.

Take `CN1CCN(c2nc(NCc3cccnc3)c3nccnc3n2)CC1` [Compound 18d]: the IC50 in assay [1] (sodium linoleate 0.1 mM, read-out: Lipoxygenase inhibitory activity (IC50)) is 0.1 ± 0.01 µM. In addition, the “Hydroxyl radicals scavenged (%)” value in assay [2] worked out at 95%. Also, in assay [3], the “Change in body weight (%)” value is recorded as -7%; the “Score (levels 0–5)” value is “One rat exhibited patchy petechial bleeding (2), and another diffuse petechial bleeding (3); the rest presented partial exfoliated mucosa or single erosion or ulcer”. Further, the IC50 in assay [4] stood at 32.5 ± 1 µM. In assay [5], the “RA (%) 100μM 20 min” value worked out at 10% and the “RA (%) 100μM 60 min” value came to 11%.
In the case of `CN1CCN(c2nc(NCc3ccccc3)c3nccnc3n2)CC1` [Compound 18a], the inhibition at 100 µM in assay [1] amounted to 31.5 ± 0.2%. Further, the “Hydroxyl radicals scavenged (%)” value in assay [2] is 91%. Moreover, in assay [3], the “Change in body weight (%)” value was -4.2% and the “Score (levels 0–5)” value is on record as “One rat exhibited hyperemia (1); the rest presented petechial bleeding (patchy to diffuse) (2–3)”. Moreover, the IC50 in assay [4] came to 22 ± 0.8 µM. In addition, in assay [5], the “RA (%) 100μM 20 min” value is reported as 2% and the “RA (%) 100μM 60 min” value is on record as 7%.
For the compound `CN1CCN(c2nc(N)c3nccnc3n2)CC1` [Compound 5a, 2-(4-methylpiperazin-1-yl) pteridin-4-amine], the inhibition at 100 µM in assay [1] is 37.5 ± 0.1%. For the same compound, the “Hydroxyl radicals scavenged (%)” value in assay [2] stood at 98%. In assay [3], the “Change in body weight (%)” value is listed as -1.1%. In assay [4], this compound yielded an IC50 of 41 ± 1.1 µM. In assay [5], the “RA (%) 100μM 20 min” value came out at 15% and the “RA (%) 100μM 60 min” value came to 14%.
For the compound `COc1ccc2c(c1)c(CC(=O)O)c(C)n2C(=O)c1ccc(Cl)cc1` [Indomethacin, indomethacin, reference compound], in assay [6], the “Reduction of rat paw edema after 1 h (%)” value is 25 ^† %.
